Measurements reported in ChEMBL document CHEMBL1132341, “Synthesis and characterization of fluorescent ligands for the norepinephrine transporter: potential neuroblastoma imaging agents” (J Med Chem, 1999).

The compounds below were run on SK-N-SH (assay: Inhibition of [3H]NE uptake into human SK-N-SH-SY5Y Neuroblastoma cells).
Format: functional, cell-based

**Q.** With CCOC(=O)[C@@H]1[C@H](O/C(S)=N/c2ccc(/N=N/c3ccc(N(C)C)cc3)cc2)C[C@H]2CC[C@@H]1N2C as the compound, how does the IC50 read?
**A.** 1320 nM

**Q.** For CNCCC(Nc1ccc([N+](=O)[O-])c2nonc12)c1ccccc1 (stereo not drawn), which IC50 is on record?
**A.** 850 nM

**Q.** Which IC50 does the source give for N=C(N)NCc1ccc(/C=C/c2ccccc2)cc1 here?
**A.** 120 nM

**Q.** How did the IC50 turn out when N=C(N)NCCN1c2ccccc2C=Cc2ccccc21 was run?
**A.** 30 nM

**Q.** With CCOC(=O)[C@@H]1[C@H](OS(=O)(=O)c2cccc3c(N(C)C)cccc23)C[C@H]2CC[C@@H]1N2C as the compound, how does the IC50 read?
**A.** 60 nM

**Q.** For CNCCC(NS(=O)(=O)c1cccc2c(N(C)C)cccc12)c1ccccc1 (stereo not drawn), which IC50 is on record?
**A.** 370 nM

**Q.** Which IC50 does the source give for CNCCC(/N=C(\S)Nc1ccc(/N=N/c2ccc(N(C)C)cc2)cc1)c1ccccc1 (stereo not drawn) here?
**A.** 1020 nM

**Q.** N=C(N)NCc1cccc2ccccc12 was tested. Which IC50 did it give?
**A.** 60 nM
